From patent US20170045513A1, “METHODS OF DIAGNOSING CELIAC DISEASE USING IP-10” (ImmusanT, Inc., priority 2014, published 2017)
Non-standard residues stand in square brackets, D forms with d. pGlu = O=C1CC[C@@H](C(=O)O)N1

Legend:
Type in all cases: cell-based, human
gluten-reactive T cells [1] = test: 96-well plate whole blood cytokine release, IFNγ by MAGPIX multiplex bead assay; conditions: for Percent of maximal response to individual gluten peptides, IFNg: after oral gluten challenge; for IFNγ WB MAGPIX % max Mean: n = 8, blood after oral gluten challenge, individual peptides 5 μM (Peptide 2* of P14, Pepscan: 10 μg/mL (5.45 μM))
gluten-reactive T cells [2] = test: 96-well plate whole blood cytokine release, IP-10 by MAGPIX multiplex bead assay; conditions: for Percent of maximal response to individual gluten peptides, IP-10: after oral gluten challenge; for IP-10 WB MAGPIX % max Mean: n = 10, blood after oral gluten challenge, individual peptides 5 μM (Peptide 2* of P14, Pepscan: 10 μg/mL (5.45 μM))
gluten-reactive T cells [3] = test: Overnight IFNγ ELISpot assay with fresh PBMC; conditions: for Percent of maximal response to individual gluten peptides, ELISp: after oral gluten challenge; for IFNγ ELISpot % max Mean: n = 5, blood after oral gluten challenge, individual peptides 5 μM (Peptide 2* of P14, Pepscan: 10 μg/mL (5.45 μM))
How it was run: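 Read-out is IFNγ spot-forming units per well, counted automatically after overnight culture of fresh PBMC (0.4 million/well) with single peptides (duplicate) or pools (triplicate). Donors: HLA-DQ2.5+ celiac patients on gluten-free diet, bled pre- and day 6 after 3-day oral gluten challenge.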

## (pE)QPFPQPELPYPYPQ-amide ([pGlu]QPFPQPELPYPYPQ-NH2; SMILES CC(C)C[C@H](NC(=O)[C@H](CCC(=O)O)NC(=O)[C@@H]1CCCN1C(=O)[C@H](CCC(N)=O)NC(=O)[C@@H]1CCCN1C(=O)[C@H](Cc1ccccc1)NC(=O)[C@@H]1CCCN1C(=O)[C@H](CCC(N)=O)NC(=O)[C@@H]1CCC(=O)N1)C(=O)N1CCC[C@H]1C(=O)N[C@@H](Cc1ccc(O)cc1)C(=O)N1CCC[C@H]1C(=O)N[C@@H](Cc1ccc(O)cc1)C(=O)N1CCC[C@H]1C(=O)N[C@@H](CCC(N)=O)C(N)=O) [Peptide 16]
gluten-reactive T cells [1]; Subject 2, Max. 116 pg/mL
  Percent of maximal response to individual gluten peptides, IFNg: 65 % of max
gluten-reactive T cells [1]; Subject 3, Max. 799 pg/mL
  Percent of maximal response to individual gluten peptides, IFNg: 13 % of max
gluten-reactive T cells [1]; Subject 4, Max. 136 pg/mL
  Percent of maximal response to individual gluten peptides, IFNg: 16 % of max
gluten-reactive T cells [1]; Subject 6, Max. 72 pg/mL
  Percent of maximal response to individual gluten peptides, IFNg: 10 % of max
gluten-reactive T cells [1]; Subject 7, Max. 17 pg/mL
  Percent of maximal response to individual gluten peptides, IFNg: 100 % of max
gluten-reactive T cells [1]; Subject 8, Max. 47 pg/mL
  Percent of maximal response to individual gluten peptides, IFNg: 0 % of max
gluten-reactive T cells [1]; Subject 9, Max. 67 pg/mL
  Percent of maximal response to individual gluten peptides, IFNg: 39 % of max
gluten-reactive T cells [1]; Subject 10, Max. 229 pg/mL
  Percent of maximal response to individual gluten peptides, IFNg: 2 % of max
gluten-reactive T cells [1]
  IFNγ WB MAGPIX % max Mean: 31 % max
gluten-reactive T cells [2]; Subject 1, Max. 2331 pg/mL
  Percent of maximal response to individual gluten peptides, IP-10: 16 % of max
gluten-reactive T cells [2]; Subject 2, Max. 3646 pg/mL
  Percent of maximal response to individual gluten peptides, IP-10: 45 % of max
gluten-reactive T cells [2]; Subject 3, Max. 9492 pg/mL
  Percent of maximal response to individual gluten peptides, IP-10: ≥ 100 % of max
gluten-reactive T cells [2]; Subject 4, Max. 9463 pg/mL
  Percent of maximal response to individual gluten peptides, IP-10: 69 % of max
gluten-reactive T cells [2]; Subject 5, Max. 9336 pg/mL
  Percent of maximal response to individual gluten peptides, IP-10: 35 % of max
gluten-reactive T cells [2]; Subject 6, Max. 5863 pg/mL
  Percent of maximal response to individual gluten peptides, IP-10: 4 % of max
gluten-reactive T cells [2]; Subject 7, Max. 2330 pg/mL
  Percent of maximal response to individual gluten peptides, IP-10: 800 % of max
gluten-reactive T cells [2]; Subject 8, Max. 4019 pg/mL
  Percent of maximal response to individual gluten peptides, IP-10: 1 % of max
gluten-reactive T cells [2]; Subject 9, Max. 8349 pg/mL
  Percent of maximal response to individual gluten peptides, IP-10: 60 % of max
gluten-reactive T cells [2]; Subject 10, Max. 8922 pg/mL
  Percent of maximal response to individual gluten peptides, IP-10: 11 % of max
gluten-reactive T cells [2]
  IP-10 WB MAGPIX % max Mean: 42 % max
gluten-reactive T cells [3]; Subject 3, Max. 18 SFU
  Percent of maximal response to individual gluten peptides, ELISp: 22 % of max
gluten-reactive T cells [3]; Subject 4, Max. 36 SFU
  Percent of maximal response to individual gluten peptides, ELISp: 31 % of max
gluten-reactive T cells [3]; Subject 6, Max. 16 SFU
  Percent of maximal response to individual gluten peptides, ELISp: 19 % of max
gluten-reactive T cells [3]; Subject 8, Max. 17 SFU
  Percent of maximal response to individual gluten peptides, ELISp: 24 % of max
gluten-reactive T cells [3]; Subject 10, Max. 11 SFU
  Percent of maximal response to individual gluten peptides, ELISp: 27 % of max
gluten-reactive T cells [3]
  IFNγ ELISpot % max Mean: 24 % max

## (pE)QPFPQPEQPFPLQPEQP-amide ([pGlu]QPFPQPEQPFPLQPEQP-NH2; SMILES CC(C)C[C@H](NC(=O)[C@@H]1CCCN1C(=O)[C@H](Cc1ccccc1)NC(=O)[C@@H]1CCCN1C(=O)[C@H](CCC(N)=O)NC(=O)[C@H](CCC(=O)O)NC(=O)[C@@H]1CCCN1C(=O)[C@H](CCC(N)=O)NC(=O)[C@@H]1CCCN1C(=O)[C@H](Cc1ccccc1)NC(=O)[C@@H]1CCCN1C(=O)[C@H](CCC(N)=O)NC(=O)[C@@H]1CCC(=O)N1)C(=O)N[C@@H](CCC(N)=O)C(=O)N1CCC[C@H]1C(=O)N[C@@H](CCC(=O)O)C(=O)N[C@@H](CCC(N)=O)C(=O)N1CCC[C@H]1C(N)=O) [Peptide 6]
gluten-reactive T cells [1]; Subject 2, Max. 116 pg/mL
  Percent of maximal response to individual gluten peptides, IFNg: 58 % of max
gluten-reactive T cells [1]; Subject 3, Max. 799 pg/mL
  Percent of maximal response to individual gluten peptides, IFNg: 10 % of max
gluten-reactive T cells [1]; Subject 4, Max. 136 pg/mL
  Percent of maximal response to individual gluten peptides, IFNg: 54 % of max
gluten-reactive T cells [1]; Subject 6, Max. 72 pg/mL
  Percent of maximal response to individual gluten peptides, IFNg: 4 % of max
gluten-reactive T cells [1]; Subject 7, Max. 17 pg/mL
  Percent of maximal response to individual gluten peptides, IFNg: 2 % of max
gluten-reactive T cells [1]; Subject 8, Max. 47 pg/mL
  Percent of maximal response to individual gluten peptides, IFNg: 6 % of max
gluten-reactive T cells [1]; Subject 9, Max. 67 pg/mL
  Percent of maximal response to individual gluten peptides, IFNg: 69 % of max
gluten-reactive T cells [1]; Subject 10, Max. 229 pg/mL
  Percent of maximal response to individual gluten peptides, IFNg: 20 % of max
gluten-reactive T cells [1]
  IFNγ WB MAGPIX % max Mean: 28 % max
gluten-reactive T cells [2]; Subject 1, Max. 2331 pg/mL
  Percent of maximal response to individual gluten peptides, IP-10: 34 % of max
gluten-reactive T cells [2]; Subject 2, Max. 3646 pg/mL
  Percent of maximal response to individual gluten peptides, IP-10: 21 % of max
gluten-reactive T cells [2]; Subject 3, Max. 9492 pg/mL
  Percent of maximal response to individual gluten peptides, IP-10: ≥ 100 % of max
gluten-reactive T cells [2]; Subject 4, Max. 9463 pg/mL
  Percent of maximal response to individual gluten peptides, IP-10: ≥ 100 % of max
gluten-reactive T cells [2]; Subject 5, Max. 9336 pg/mL
  Percent of maximal response to individual gluten peptides, IP-10: 8 % of max
gluten-reactive T cells [2]; Subject 6, Max. 5863 pg/mL
  Percent of maximal response to individual gluten peptides, IP-10: 0 % of max
gluten-reactive T cells [2]; Subject 7, Max. 2330 pg/mL
  Percent of maximal response to individual gluten peptides, IP-10: 1 % of max
gluten-reactive T cells [2]; Subject 8, Max. 4019 pg/mL
  Percent of maximal response to individual gluten peptides, IP-10: 8 % of max
gluten-reactive T cells [2]; Subject 9, Max. 8349 pg/mL
  Percent of maximal response to individual gluten peptides, IP-10: ≥ 100 % of max
gluten-reactive T cells [2]; Subject 10, Max. 8922 pg/mL
  Percent of maximal response to individual gluten peptides, IP-10: 56 % of max
gluten-reactive T cells [2]
  IP-10 WB MAGPIX % max Mean: 43 % max
gluten-reactive T cells [3]; Subject 3, Max. 18 SFU
  Percent of maximal response to individual gluten peptides, ELISp: 11 % of max
gluten-reactive T cells [3]; Subject 4, Max. 36 SFU
  Percent of maximal response to individual gluten peptides, ELISp: 56 % of max
gluten-reactive T cells [3]; Subject 6, Max. 16 SFU
  Percent of maximal response to individual gluten peptides, ELISp: 31 % of max
gluten-reactive T cells [3]; Subject 8, Max. 17 SFU
  Percent of maximal response to individual gluten peptides, ELISp: 0 % of max
gluten-reactive T cells [3]; Subject 10, Max. 11 SFU
  Percent of maximal response to individual gluten peptides, ELISp: 9 % of max
gluten-reactive T cells [3]
  IFNγ ELISpot % max Mean: 21 % max
